Laboratory results taken from publication PMC7327383, “The affinity and selectivity of α‐adrenoceptor antagonists, antidepressants, and antipsychotics for the human α1A, α1B, and α1D‐adrenoceptors” (Pharmacology Research & Perspectives, 2020).
Where two headings read alike, the source gives them in different places. One block for each compound: values may come before it.

What was measured:
[1] = target: T1, full-length human α1D-adrenoceptor (Homo sapiens, UniProt P25100); assay: [3H]prazosin whole-cell competition binding, CHO-α1D cells; details: for Selectivity ratio α1A vs α1D / Selectivity ratio α1B vs α1D: ratio of KD values, higher α1D affinity (site 1 KD)
T1 sequence (P25100 1-572): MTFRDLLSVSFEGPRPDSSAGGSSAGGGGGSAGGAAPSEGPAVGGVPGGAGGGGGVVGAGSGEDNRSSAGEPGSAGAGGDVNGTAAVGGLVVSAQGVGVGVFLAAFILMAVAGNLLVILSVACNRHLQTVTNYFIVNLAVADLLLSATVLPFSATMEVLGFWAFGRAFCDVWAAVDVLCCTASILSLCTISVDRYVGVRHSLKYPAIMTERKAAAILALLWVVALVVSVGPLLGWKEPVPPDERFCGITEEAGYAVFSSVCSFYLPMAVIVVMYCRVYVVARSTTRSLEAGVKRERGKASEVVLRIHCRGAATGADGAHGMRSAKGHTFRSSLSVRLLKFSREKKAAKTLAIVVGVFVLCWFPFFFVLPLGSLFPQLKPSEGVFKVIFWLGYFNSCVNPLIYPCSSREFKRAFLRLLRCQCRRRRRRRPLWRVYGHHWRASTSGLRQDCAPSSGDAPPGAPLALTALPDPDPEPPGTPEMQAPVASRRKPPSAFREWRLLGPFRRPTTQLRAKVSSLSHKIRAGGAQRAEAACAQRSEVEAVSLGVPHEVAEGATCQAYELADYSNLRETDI

human α1B-adrenoceptor = target: T2, human α1B-adrenoceptor (Homo sapiens, UniProt P35368); assay: [3H]prazosin whole-cell competition binding, CHO-α1B cells; details: for Kd: read-out: Log KD α1B (converted); for Log KD α1B: result in words: no inhibition of [3H]prazosin binding at maximum concentration possible; for binding at α1B: result in words in the Log KD α1B column; for binding at α1B (result in words): up to the maximum concentration
T2 construct: CHO cells stably expressing either the full‐length human α1A, α1B, or α1D‐adrenoceptor
T2 sequence (P35368 1-520): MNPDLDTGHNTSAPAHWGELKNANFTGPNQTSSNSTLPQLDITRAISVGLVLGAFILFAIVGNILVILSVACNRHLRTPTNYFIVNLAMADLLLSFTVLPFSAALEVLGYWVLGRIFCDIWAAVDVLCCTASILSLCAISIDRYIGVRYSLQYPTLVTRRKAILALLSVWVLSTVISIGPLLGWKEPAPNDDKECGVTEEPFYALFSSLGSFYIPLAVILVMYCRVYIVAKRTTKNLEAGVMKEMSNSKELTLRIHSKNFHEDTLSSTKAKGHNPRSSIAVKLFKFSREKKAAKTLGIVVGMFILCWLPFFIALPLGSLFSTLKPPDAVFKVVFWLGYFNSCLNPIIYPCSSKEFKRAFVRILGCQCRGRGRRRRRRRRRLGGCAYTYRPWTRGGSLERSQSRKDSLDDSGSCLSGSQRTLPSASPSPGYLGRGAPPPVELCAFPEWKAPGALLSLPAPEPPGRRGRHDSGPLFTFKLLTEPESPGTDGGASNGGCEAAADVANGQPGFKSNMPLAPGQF

human α1A-adrenoceptor = target: T3, human α1A-adrenoceptor (Homo sapiens, UniProt P35348); assay: [3H]prazosin whole-cell competition binding, CHO-α1A cells
T3 construct: CHO cells stably expressing either the full‐length human α1A, α1B, or α1D‐adrenoceptor
T3 sequence (P35348 1-466): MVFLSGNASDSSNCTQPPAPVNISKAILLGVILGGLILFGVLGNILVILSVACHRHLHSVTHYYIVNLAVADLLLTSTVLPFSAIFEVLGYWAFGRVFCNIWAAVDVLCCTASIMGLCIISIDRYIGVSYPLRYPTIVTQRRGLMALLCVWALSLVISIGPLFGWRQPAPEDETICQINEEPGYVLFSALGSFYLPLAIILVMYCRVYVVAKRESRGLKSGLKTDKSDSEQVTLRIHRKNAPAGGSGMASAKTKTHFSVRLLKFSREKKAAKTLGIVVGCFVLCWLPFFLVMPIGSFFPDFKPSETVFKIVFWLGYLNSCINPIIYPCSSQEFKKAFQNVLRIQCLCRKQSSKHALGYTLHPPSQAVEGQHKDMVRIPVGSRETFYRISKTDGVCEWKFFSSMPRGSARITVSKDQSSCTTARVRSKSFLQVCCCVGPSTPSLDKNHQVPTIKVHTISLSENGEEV

[2] = ratio of KD values, printed under α1A = higher α1A affinity, 1.0 under vs = none
[3] = single-component inhibition curve, given as log KD (negative), mean ± SE mean, read-out: Log KD α1A (converted)
[4] = percentage of inhibition through first component, control
[5] = two-component inhibition curve, proportion of site 1
[6] = ratio, 1 = no selectivity for a subtype over another
[7] = single-component inhibition curve, given as log KD (negative), mean ± SE mean
[8] = log KD from 3H-prazosin whole cell binding, CHO cells, mean ± s.e.mean
[9] = Log KD α1D, single-component inhibition curve, given as log KD (negative), mean ± SE mean
[10] = Log KD α1A, single-component inhibition curve, given as log KD (negative), mean ± SE mean

SMILES: COc1ccccc1N1CCN(CCCNc2c(C)c(=O)n(C)c(=O)n2C)CC1 [5-methyl-urapidil]
Log KD α1D [1]: -5.61 ± 0.07
Log KD α1B (human α1B-adrenoceptor): -6.06 ± 0.04
selectivity α1B vs α1D (human α1B-adrenoceptor): 2.8
Log KD α1A (human α1A-adrenoceptor): -8.23 ± 0.05
selectivity α1A vs 1D (human α1A-adrenoceptor): 417
selectivity α1A vs α1B (human α1A-adrenoceptor): 148

SMILES: Cn1cc(C(F)(F)F)nc1-c1ccc(OCC(O)CNCCOc2ccc(O)c(C(N)=O)c2)cc1 (centres unmarked) [CGP20712A]
Kd ([1]; Log KD α1D (apparent), app: top concentration inhibited most but not all specific binding, curve extrapolated): 11000 nM
Selectivity ratio α1A vs α1D [1]: 1.1 fold
Selectivity ratio α1B vs α1D [1]: >9.1 fold
IC50 (human α1B-adrenoceptor; read-out: Log IC50 α1B (converted)): > 100000 nM
Selectivity ratio α1A vs α1B (human α1A-adrenoceptor; [2]): >8.5 fold
Kd (human α1A-adrenoceptor; [3]): 11700 nM

SMILES: COc1cc2nc(N3CCN(C(=O)c4ccco4)[C@H]4CCCC[C@H]43)nc(N)c2cc1OC (racemic) [Cyclazosin]
Kd ([1]; Log KD α1D site 1, high-affinity component of two-component curve, control, used for selectivity): 0.135 nM
Kd ([1]; affinity, subtype not given, by Table 1 reached at α1D site 1): < 0.25 nM
Log KD α1D site 2 ([1]; low-affinity component of two-component curve, control): −7.44 ± 0.10
% site 1 α1D [1, 4]: 56.8 ± 3.4% site 1
Selectivity ratio α1A vs α1D [1]: 9.5 fold
Selectivity ratio α1B vs α1D [1]: 15 fold
% site 1 α1D [1, 5]: -9.87 ± 0.06 -7.44 ± 0.10 56.8 ± 3.4% site 1
selectivity α1B vs α1D (human α1B-adrenoceptor; [6]): 15
Kd (human α1B-adrenoceptor; [7]): 2.09 nM
Selectivity ratio α1A vs α1B (human α1A-adrenoceptor; [2]): 1.6 fold
selectivity α1A vs 1D (human α1A-adrenoceptor; [6]): 9.5
Kd (human α1A-adrenoceptor; [3]): 1.29 nM

SMILES: CNCCC=C1c2ccccc2CCc2ccccc21 [Nortriptyline]
Kd [1, 9]: 1550 nM
Selectivity ratio α1B vs α1D (human α1B-adrenoceptor): 1.8 fold
Kd (human α1B-adrenoceptor; [7]): 851 nM
Selectivity ratio α1A vs α1B (human α1A-adrenoceptor): 47 fold
Selectivity ratio α1A vs α1D (human α1A-adrenoceptor): 85 fold
Kd (human α1A-adrenoceptor; [10]): 18.2 nM

SMILES: CCN1CCCC1CNC(=O)c1cc(S(=O)(=O)CC)c(N)cc1OC (centres unmarked) [Amisulpiride]
Log KD α1D (apparent) ([1]; app: top concentration inhibited most but not all specific binding, curve extrapolated): −4.55 ± 0.08^app
Log KD α1B: result in words (human α1B-adrenoceptor): No binding to 100 µmol/L
binding at α1B (human α1B-adrenoceptor): No binding to 100µM
binding at α1B (result in words) (human α1B-adrenoceptor): No binding to 100µM
Log KD α1A (human α1A-adrenoceptor; [7]): −5.05 ± 0.04

More lines, now with the values ahead:

% site 1 α1D [1, 5]: 64.0 ± 2.1%
Log KD α1B (human α1B-adrenoceptor; [8]): -7.37 ± 0.04
Log KD α1A (human α1A-adrenoceptor; [8]): -9.06 ± 0.07
SMILES: COc1ccccc1N1CCN(CC2CN3C(=O)N(C)c4ccccc4C3=N2)CC1 (centres unmarked) [2-MPMDQ]

Kd [1, 9]: 117 nM
Selectivity ratio α1B vs α1D (human α1B-adrenoceptor; ratio of KD values, higher α1B affinity, 1.0 under vs = none): 22 fold
Kd (human α1B-adrenoceptor; [7]): 5.25 nM
Selectivity ratio α1A vs α1D (human α1A-adrenoceptor; ratio of KD values, higher α1A affinity, 1.0 under vs = none): 219 fold
Selectivity ratio α1A vs α1B (human α1A-adrenoceptor; [2]): 9.8 fold
Kd (human α1A-adrenoceptor; [3]): 0.537 nM
SMILES: O=C1NCCN1CCN1CCC(c2cn(-c3ccc(F)cc3)c3ccc(Cl)cc23)CC1 [Sertindole]

% site 1 α1D [1, 4]: 64.0 ± 2.1% site1
Log KD α1B (human α1B-adrenoceptor; [7]): −7.37 ± 0.04
Log KD α1A (human α1A-adrenoceptor; [7]): −9.06 ± 0.07
SMILES: COc1ccccc1N1CCN(CC2CN3C(=O)N(C)c4ccccc4C3=N2)CC1 (centres unmarked) [2‐MPMDQ]

Kd [1, 9]: 562 nM
Selectivity ratio α1B vs α1D [1]: 1.1 fold
selectivity α1B vs α1D (human α1B-adrenoceptor; [6]): 1.1
Kd (human α1B-adrenoceptor; [7]): 603 nM
Selectivity ratio α1A vs α1B (human α1A-adrenoceptor): 93 fold
Selectivity ratio α1A vs α1D (human α1A-adrenoceptor): 87 fold
selectivities α1A vs α1B (human α1A-adrenoceptor): 93
selectivity α1A vs α1B (human α1A-adrenoceptor): 93
Kd (human α1A-adrenoceptor; [10]): 6.46 nM
SMILES: CN(C)CCC=C1c2ccccc2CCc2ccccc21 [Amitriptyline]

IC50 [1]: > 31600 nM
Log KD α1B: result in words (human α1B-adrenoceptor): No binding to 100 µmol/L
binding at α1B (human α1B-adrenoceptor): No binding to 100µM
binding at α1B (result in words) (human α1B-adrenoceptor): No binding to 100µM
Kd (human α1A-adrenoceptor; app: top concentration inhibited most but not all specific binding, curve extrapolated, read-out: Log KD α1A (apparent) (converted)): 26900 nM
Selectivity ratio α1A vs α1B (human α1A-adrenoceptor; [2]): >3.7 fold
SMILES: COc1ccc2cccc(CCNC(C)=O)c2c1 [Agomelatine]
